Laboratory results reported in patent US20230113761A1, “METHOD AND COMPOSITION FOR MIMICKING BIOLOGICAL BENEFITS OF CALORIC RESTRICTION BY ADMINISTRATION OF B-AMINOISOBUTYRIC ACID” (NANJING NUTRABUILDING BIO-TECH CO., LTD., priority 2021, published 2023).

Legend:
[1] = Blood lipid parameters (TCHO, TG, LDL, HDL) of high-fat diet mice after 8 weeks of treatment; type: in vivo; details: group D (HFD+BAIBA, 150 mg/kg) vs group B (HFD)
Protocol: (§1) Mice were divided into groups and named after the diet they consumed. Group A mice were fed ad libitum (control), Group B mice were on high-fat diet (HFD), Group C mice were fed restricted amount of the HFD diet to achieve caloric restriction (HFD+CR), and Group D mice were fed high-fat diet and supplemented with 150 mg/kg β-aminoisobutyric acid (HFD+BAIBA). All groups of mice were housed individually, and fed for months of interventions and had free access to water. Health status was monitored during the intervention.
(§2) The four groups of mice were fed for eight weeks, body weight was measured weekly, and body fat mass, lean mass and free water mass were also measured by Body Composition Analyzer to monitor body composition every week. At the end of 8 weeks of treatment, blood was collected for each group of mice, and parameters such as total cholesterol (TCHO), triglyceride (TG), low-density lipoprotein (LDL) and high-density lipoprotein (HDL) were detected. Data were collected and subject to statistical analysis.

[2] = Body weight and body composition (fat mass, lean mass, free water) of high-fat diet mice during 8 weeks of feeding intervention; type: in vivo; details: for fat mass: FIG. 2
Protocol: as §1, §2

## CC(CN)C(=O)O (stereo not drawn) [BAIBA, β-aminoisobutyric acid]
[1]; FIG. 5
  total cholesterol (TCHO) level: significantly lower than that of group B (HFD) and close to that of group C
[1]; FIG. 6
  triglyceride (TG) level: significantly lower than that of group B (HFD) and close to that of group C
[1]; FIG. 7
  low-density lipoprotein (LDL) level: significantly lower than that of group B (HFD)
[1]; four groups not significantly different, FIG. 8
  high-density lipoprotein (HDL) level: higher HDL levles compared to group B (HFD)
[2]; group D (HFD+BAIBA, 150 mg/kg) vs group B (HFD), 8 weeks, Body Composition Analyzer
  fat mass: decreased compared to group B (HFD)
[2]; group D (HFD+BAIBA, 150 mg/kg) vs group B (HFD), 8 weeks, FIG. 4
  free water content: significantly higher than that in group B (HFD)
[2]; group D (HFD+BAIBA, 150 mg/kg) vs group C (HFD+CR), by the 8th week, FIG. 3
  lean mass: significantly more than that of group C (HFD+CR)
[2]; group D (HFD+BAIBA, 150 mg/kg) vs group C (HFD+CR), from week 5 of feeding intervention
  fat mass: less fat mass than group C (HFD+CR)
[2]; mice on high-fat diet supplemented with 150 mg/kg BAIBA (group D) vs group B (HFD), 8 weeks, measured weekly, FIG. 1
  body weight: significantly lower than that of group B (HFD)
